Key:
Aphis craccivoral = experiment: Insecticidal activity against Aphis craccivoral by immersing (dipping aphids on bean sprout); format: in vivo; conditions: for mortality (%) (500 ppm) Aphis: 23° C.
Method: (§1) Test on the insecticidal activity of Compound Nos. 1-227
Aphis, which belongs to Homoptera and has a piercing-sucking mouthpart, is a common insect for agricultural plant. Aphis craccivoral was tested by the way of immersing.
Test method: exactly weighed various samples were independently added to N,N-dimethylformamide to form a 10 g/L stock solution. The mixture was diluted with 0.2 mL/L aqueous Triton X-100 solution to a concentration of 500 ug/mL. After stably sucking on bean sprout, the adult aphis without wings together with bean sprout was dipped into 500 ug/mL dilution, taken out after 5 seconds, and the excess dilution was sucked out with bibulous paper and the adult aphis without wings was incubated in clean vessel at a constant temperature of 23° C. Each concentration was repeated for 3 times and the control group contained 0.2 mL/L aqueous Triton X-100 solution. The number of killed aphis was counted after 24 hours to calculate the mortality.

Nilaparvata lugens = experiment: Insecticidal activity against Nilaparvata lugens (planthopper) by spraying; format: in vivo; conditions: for mortality (%) (500 ppm) Nilaparvata lugens: spraying 2 ml, counted after 24 hours; for mortality (%) (500 ppm) Nilaparvata-lugens: spraying 2 ml per tumbler, killed counted after 24 hours
Method: as §1
Planthopper, which belongs to Homoptera and has a piercing-sucking mouthpart, is a common insect for agricultural plant. Nilaparvata lugens was tested by the way of spraying.
Test method: the test compound was exactly formulated into a solution having a certain concentration and clean water was used as a blank control. Each process was repeated for 3 tumblers (3 times). 2 ml of solution was sprayed uniformly to each tumbler by a mini manual sprayer. 10 Nilaparvata lugens were introduced to every sink 6 hours before spraying. Three series of experiments were conducted. The number of killed Nilaparvata lugens was counted after 24 hours to calculate the mortality.

[1] = 500 ppm, immersing (dipped 5 seconds), counted after 24 hours
[2] = 500 ppm (500 ug/mL dilution), dipped 5 seconds, killed aphis counted after 24 hours

| Structure (SMILES) | mortality (%) (500 ppm) Aphis (Aphis craccivoral; [1]) | mortality (%) (500 ppm) Nilaparvata lugens (Nilaparvata lugens) | other results |
| --- | --- | --- | --- |
| O=[N+]([O-])C1=C2N(Cc3ccc(Cl)nc3)CCCN2C(OCCCl)CC1 (centres unmarked) [Compound 74] | 12 | 13 | – |
| COC1CCC([N+](=O)[O-])=C2N(Cc3ccc(Cl)nc3)CCN21 (centres unmarked) [Compound 2] | – | – | mortality at 500 ppm (Aphis craccivoral; Aphis, 24 h, read-out: mortality (%) (500 ppm) Aphis): 100%; mortality at 500 ppm (Nilaparvata lugens; Nilaparvata lugens, 24 h, read-out: mortality (%) (500 ppm) Nilaparvata lugens): 100% |
| CC(C)COC1CCC([N+](=O)[O-])=C2N(Cc3cnc(Cl)s3)CCCN21 (centres unmarked) [Compound 94] | 8 | 3 | – |
| O=C(OC1CCC([N+](=O)[O-])=C2N(Cc3ccc(Cl)nc3)CCN21)c1cc(F)c(F)c(F)c1F (centres unmarked) [Compound 128] | 0 | 21 | – |
| O=[N+]([O-])C1=C2N(Cc3cnc(Cl)s3)CCCN2C(O)CC1 (centres unmarked) [Compound 85] | 12 | 23 | – |
| CC(C)COC1CCC([N+](=O)[O-])=C2N(CC3CCOC3)CCN21 (centres unmarked) [Compound 54] | 23 | 34 | – |
| CC(C)COC1CCC([N+](=O)[O-])=C2N(Cc3cnc(Cl)s3)CCN21 (racemic) [Compound 32] | 37 | 23 | – |
| O=C(OC1CCC([N+](=O)[O-])=C2N(Cc3ccc(Cl)nc3)CCN21)c1ccc(Cl)cc1 (centres unmarked) [Compound 124] | 22 | 0 | – |
| CCOCCOC1CCC([N+](=O)[O-])=C2N(Cc3ccc(Cl)nc3)CCCN21 (centres unmarked) [Compound 84] | 26 | 39 | – |
| O=C(OC1CCC([N+](=O)[O-])=C2N(Cc3ccc(Cl)nc3)CCN21)c1ccccc1F (centres unmarked) [Compound 129] | 0 | 34 | – |
| CC(C)(C)OC1CCC([N+](=O)[O-])=C2N(Cc3cnc(Cl)s3)CCCN21 (centres unmarked) [Compound 96] | 80 | 100 | – |
| CCC(C)OC1CCC([N+](=O)[O-])=C2N(Cc3cnc(Cl)s3)CCCN21 (centres unmarked) [Compound 95] | 4 | 8 | – |
| O=[N+]([O-])C1=C2N(Cc3ccc(Cl)nc3)CCN2C(SC(C(F)(F)F)C(F)(F)F)CC1 (centres unmarked) [Compound 138] | 45 | 98 | – |
| CC(C)CCN=C1CCC([N+](=O)[O-])=C2N(Cc3ccc(Cl)nc3)CCCN12 [Compound 209] | – | – | mortality (%) (500 ppm) Aphis (Aphis craccivoral; [2]): 23%; mortality (%) (500 ppm) Nilaparvata-lugens (Nilaparvata lugens): 26% |
| CC(C)CCSC1CCC([N+](=O)[O-])=C2N(Cc3cnc(Cl)s3)CCN21 (centres unmarked) [Compound 183] | – | – | mortality (%) (500 ppm) Aphis (Aphis craccivoral; [2]): 23%; mortality (%) (500 ppm) Nilaparvata-lugens (Nilaparvata lugens): 34% |
| CCOCCN=C1CCC([N+](=O)[O-])=C2N(Cc3ccc(Cl)nc3)CCN12 [Compound 200] | – | – | mortality (%) (500 ppm) Aphis (Aphis craccivoral; [2]): 45%; mortality (%) (500 ppm) Nilaparvata-lugens (Nilaparvata lugens): 78% |
| CCC(C)OC1CCC([N+](=O)[O-])=C2N(Cc3cnc(Cl)s3)CCN21 (mixture of isomers) [Compound 33] | 24 | 56 | – |
| CC(C)(C)OC1CCC([N+](=O)[O-])=C2N(Cc3cnc(Cl)s3)CCN21 (racemic) [Compound 34] | 100 | 100 | – |
| CCN=C1CCC([N+](=O)[O-])=C2N(Cc3ccc(Cl)nc3)CCN12 [Compound 190] | – | – | mortality (%) (500 ppm) Aphis (Aphis craccivoral; [2]): 89%; mortality (%) (500 ppm) Nilaparvata-lugens (Nilaparvata lugens): 100% |
| O=C(OC1CCC([N+](=O)[O-])=C2N(Cc3cnc(Cl)s3)CCN21)c1ccccn1 (centres unmarked) [Compound 160] | 4 | 8 | – |
| CCCN=C1CCC([N+](=O)[O-])=C2N(Cc3cnc(Cl)s3)CCCN12 [Compound 225] | – | – | mortality (%) (500 ppm) Aphis (Aphis craccivoral; [2]): 35%; mortality (%) (500 ppm) Nilaparvata-lugens (Nilaparvata lugens): 78% |
| CC(C)N=C1CCC([N+](=O)[O-])=C2N(Cc3cnc(Cl)s3)CCN12 [Compound 219] | – | – | mortality (%) (500 ppm) Aphis (Aphis craccivoral; [2]): 34%; mortality (%) (500 ppm) Nilaparvata-lugens (Nilaparvata lugens): 45% |

| Structure (SMILES) | mortality (%) (500 ppm) Aphis (Aphis craccivoral; [1]) | mortality (%) (500 ppm) Nilaparvata lugens (Nilaparvata lugens) | other results |
| --- | --- | --- | --- |
| O=C(OC1CCC([N+](=O)[O-])=C2N(Cc3cnc(Cl)s3)CCN21)c1ccccc1 (centres unmarked) [Compound 161] | 3 | 5 | – |
| CCC(C)OC1CCC([N+](=O)[O-])=C2N(CC3CCOC3)CCN21 (centres unmarked) [Compound 55] | 45 | 12 | – |
| O=[N+]([O-])C1=C2N(Cc3ccc(Cl)nc3)CCN2C(Oc2ccccc2)CC1 (centres unmarked) [Compound 112] | 38 | 75 | – |
| CC(C)(C)SC1CCC([N+](=O)[O-])=C2N(Cc3ccc(Cl)nc3)CCN21 (centres unmarked) [Compound 142] | 67 | 88 | – |
| CCCC(C)SC1CCC([N+](=O)[O-])=C2N(Cc3cnc(Cl)s3)CCN21 (centres unmarked) [Compound 184] | – | – | mortality (%) (500 ppm) Aphis (Aphis craccivoral; [2]): 12%; mortality (%) (500 ppm) Nilaparvata-lugens (Nilaparvata lugens): 35% |
| CCCOC1CCC([N+](=O)[O-])=C2N(Cc3ccc(Cl)nc3)CCCN21 (centres unmarked) [Compound 76] | 100 | 100 | – |
| CC(C)OC1CCC([N+](=O)[O-])=C2N(Cc3ccc(Cl)nc3)CCCN21 (centres unmarked) [Compound 77] | 56 | 78 | – |
| N=C1CCC([N+](=O)[O-])=C2N(Cc3cnc(Cl)s3)CCCN12 [Compound 220] | – | – | mortality (%) (500 ppm) Aphis (Aphis craccivoral; [2]): 16%; mortality (%) (500 ppm) Nilaparvata-lugens (Nilaparvata lugens): 56% |
| CS(=O)(=O)OC1CCC([N+](=O)[O-])=C2N(Cc3cnc(Cl)s3)CCN21 (centres unmarked) [Compound 156] | 78 | 92 | – |
| CCCOC1CCC([N+](=O)[O-])=C2N(Cc3cnc(Cl)s3)CCN21 (racemic) [Compound 28] | 100 | 100 | – |
| CCOCCOC1CCC([N+](=O)[O-])=C2N(Cc3cnc(Cl)s3)CCN21 (centres unmarked) [Compound 44] | 67 | 100 | – |
| CCCCN=C1CCC([N+](=O)[O-])=C2N(Cc3ccc(Cl)nc3)CCN12 [Compound 194] | – | – | mortality (%) (500 ppm) Aphis (Aphis craccivoral; [2]): 34%; mortality (%) (500 ppm) Nilaparvata-lugens (Nilaparvata lugens): 45% |
| CCCCCSC1CCC([N+](=O)[O-])=C2N(Cc3cnc(Cl)s3)CCN21 (centres unmarked) [Compound 182] | – | – | mortality (%) (500 ppm) Aphis (Aphis craccivoral; [2]): 67%; mortality (%) (500 ppm) Nilaparvata-lugens (Nilaparvata lugens): 87% |
| CCOC1CCC([N+](=O)[O-])=C2N(Cc3ccc(Cl)nc3)CCCN21 (centres unmarked) [Compound 73] | 34 | 56 | – |
| CCCC(C)OC1CCC([N+](=O)[O-])=C2N(CC3CCOC3)CCN21 (centres unmarked) [Compound 61] | 56 | 89 | – |
| CC(C)CCOC1CCC([N+](=O)[O-])=C2N(Cc3cnc(Cl)s3)CCN21 (racemic) [Compound 37] | 56 | 64 | – |
| O=C(OC1CCC([N+](=O)[O-])=C2N(Cc3cnc(Cl)s3)CCN21)c1cc(F)c(F)cc1F (centres unmarked) [Compound 166] | – | – | mortality (%) (500 ppm) Aphis (Aphis craccivoral; [2]): 0%; mortality (%) (500 ppm) Nilaparvata-lugens (Nilaparvata lugens): 45% |
| CC(C)(C)CSC1CCC([N+](=O)[O-])=C2N(Cc3ccc(Cl)nc3)CCN21 (centres unmarked) [Compound 147] | 56 | 99 | – |
| O=[N+]([O-])C1=C2N(Cc3cnc(Cl)s3)CCN2C(OC2CCCCC2)CC1 (racemic) [Compound 40] | 45 | 67 | – |
| CCCCCOC1CCC([N+](=O)[O-])=C2N(CC3CCOC3)CCN21 (centres unmarked) [Compound 58] | 34 | 23 | – |
| CC(C)(C)COC1CCC([N+](=O)[O-])=C2N(Cc3ccc(Cl)nc3)CCN21 (racemic) [Compound 17] | 100 | 100 | – |

— US7655665B2, “Nitromethylene derivatives and their use” (East China University of Science and Technology, priority 2004, dated 2010)
